Data set [1] has as its target T1, Oxytocin receptor (Rattus norvegicus) (UniProt P70536).
T1 sequence (whole entry): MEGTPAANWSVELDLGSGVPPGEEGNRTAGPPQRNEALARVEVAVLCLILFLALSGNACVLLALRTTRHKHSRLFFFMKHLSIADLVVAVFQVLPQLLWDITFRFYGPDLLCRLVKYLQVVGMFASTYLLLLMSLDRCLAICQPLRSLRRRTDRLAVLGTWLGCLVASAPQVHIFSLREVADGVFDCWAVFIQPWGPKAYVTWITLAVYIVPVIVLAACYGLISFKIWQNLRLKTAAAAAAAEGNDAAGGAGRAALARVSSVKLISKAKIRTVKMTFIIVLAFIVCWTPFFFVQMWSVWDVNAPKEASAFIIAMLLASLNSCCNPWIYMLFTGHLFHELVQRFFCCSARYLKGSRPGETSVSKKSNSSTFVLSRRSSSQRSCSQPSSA
Briefly: Agonist activity at oxytocin receptor in virgin rat uterine horns assessed as uterotonic activity at relative to synthetic oxytocin.

A short description of data set [2]: Retardation factor of the compound using BuOH-HOAc-H2O at ratio of 4:1:1 as solvent system by thin layer chromatography. It counts as physicochemical.
The subject of data set [3] is Rattus norvegicus. Briefly: Antidiuretic activity in anesthetized rat. It counts as functional, Urine.
Data set [4] is described as follows: Retardation factor of the compound using BuOH-C6H6-HOAc-1.5% aqueous pyridine at ratio of 10:15:12:18 as solvent system by partition chromatography. It counts as physicochemical. As to conditions: buffer.
Data set [5] can be described thus: Retardation factor of the compound using BuOH-C6H6-HOAc-1.5% aqueous pyridine at ratio of 5:5:4:6 as solvent system by partition chromatography. It is filed as physicochemical. To be noted: buffer.
Data set [6] concerns Gallus gallus. Briefly: Inhibition of vasodepressor activity in conscious chicken. As to conditions: read-out: pA2 (converted). It is filed as functional, organism-based.
For data set [7], the system named is Rattus norvegicus. Briefly: Pressor activity in anesthetized rat. It is filed as functional.
In data set [8] the target is T1, Oxytocin receptor (Rattus norvegicus). Briefly: Agonist activity at oxytocin receptor in virgin rat uterine horns assessed as uterotonic activity at.
A short description of data set [9]: Retardation factor of the compound using BuOH-pyridine-HOAc-H2O at ratio of 15:10:3:6 as solvent system by thin layer chromatography. It is filed as physicochemical.
Data set [10] relates to Gallus gallus. Briefly: Vasodepressor activity in conscious chicken. It counts as functional.
A short description of data set [11]: Retardation factor of the compound using BuOH-pyridine-H2O at ratio of 20:10:11 as solvent system by thin layer chromatography. It counts as physicochemical.

Structures are written as SMILES. Bridge positions count the residues as written; N and C are the ends. Peptide text beside a SMILES is read from it.

`CSCC[C@H](NC(=O)[C@@H]1CCCN1C(=O)[C@@H]1CSSC[C@H](N)C(=O)N[C@@H](Cc2ccc(O)cc2)C(=O)N[C@@H](Cc2ccccc2)C(=O)N[C@@H](Cc2ccccc2)C(=O)N[C@@H](CC(N)=O)C(=O)N1)C(=O)NCC(N)=O` (H-CYFFNCPMG-NH2; disulfide 1-6): the Activity in data set [1] amounted to 54%; in the data set with Rattus norvegicus [3], 0.43 U/mg. Moreover, the results for the Rf in [2], in [4] and in [5] were 0.38, 0.19 and 0.49, respectively. Moreover, in the data set with Gallus gallus [6], the Kb was 513 nM.
On to `CSCC[C@H](NC(=O)[C@@H]1CCCN1C(=O)[C@@H]1CSSC[C@H](N)C(=O)N[C@@H](Cc2ccc(O)cc2)C(=O)N[C@@H](Cc2ccccc2)C(=O)N[C@@H](CC(C)C)C(=O)N[C@@H](CC(N)=O)C(=O)N1)C(=O)NCC(N)=O` (H-CYFLNCPMG-NH2; disulfide 1-6), for which the Activity in data set [1] was 66%; in the data set on Rattus norvegicus [3], 0.33 U/mg; in the data set with Rattus norvegicus [7] it was 0.92 U/mg; in data set [8], 0.62 U/mg; in the data set with Gallus gallus [10], 1.05 U/mg. In addition, the Rf in [2] amounted to 0.38; in data set [4] it was 0.17; in data set [9], 0.64.
Turning to `CC(C)C[C@H](NC(=O)[C@@H]1CCCN1C(=O)[C@@H]1CSSC[C@H](N)C(=O)N[C@@H](Cc2ccc(O)cc2)C(=O)N[C@@H](Cc2ccccc2)C(=O)N[C@@H](CCC(N)=O)C(=O)N[C@@H](CC(N)=O)C(=O)N1)C(=O)NCC(N)=O` (H-CYFQNCPLG-NH2; disulfide 1-6), the Activity is 90% in [1] and 39 U/mg in data set [8].
Consider `CC[C@H](C)[C@@H]1NC(=O)[C@H](Cc2ccc(O)cc2)NC(=O)[C@@H](N)CSSC[C@@H](C(=O)N2CCC[C@H]2C(=O)N[C@@H](CC(C)C)C(=O)NCC(N)=O)NC(=O)[C@H](CC(N)=O)NC(=O)[C@H](Cc2ccccc2)NC1=O` (H-CYIFNCPLG-NH2; disulfide 1-6), for which the figures for the Activity in [1] and in data set [8] were 75% and 0.75 U/mg, respectively. For the same compound, the Rf in data set [2] was 0.38; in data set [11], 0.61; in data set [4], 0.26.
Turning to `CC[C@H](C)[C@@H]1NC(=O)[C@H](Cc2ccc(O)cc2)NC(=O)[C@@H](N)CSSC[C@@H](C(=O)N2CCC[C@H]2C(=O)N[C@@H](CC(C)C)C(=O)NCC(N)=O)NC(=O)[C@H](CC(N)=O)NC(=O)[C@H](CC(C)C)NC1=O` (H-CYILNCPLG-NH2; disulfide 1-6), the Activity in [1] turned out to be 81%; in [8], 13 U/mg.

The record behind these values is ChEMBL document CHEMBL3272025, “Conformation-activity studies of oxytocin. Effects of structural modifications at corner positions of the beta-turns on the uterotonic activity” (J Med Chem, 1977).
